Results: US20230310634A1, “ANTI-HUMAN VISTA ANTIBODIES AND USE THEREOF” (IMMUNEXT, INC., priority 2020, published 2023)
“Also recorded” adds a separate entry of the source. Where a name gives a salt, the structure may show the parent alone.

Tested on: LPS stimulated human PBMCs
Test: In vitro potency of steroid payloads in LPS stimulated human PBMCs (IL-1β, IL-6 ELISA)
Assay type: cell-based
Settings: for IL-1β and IL-6 production / IL-1β production / potency relative to the other compounds of the experiment: 1 ng/mL LPS, 24 hr; for impact of halogenation of the steroid ring on potency: compared with INX-SM-3
[1] = Experiment 1, 1000-1 nM, n=1 donor
[2] = Experiment 2, 1000-1 nM, n=1 donor
[3] = Experiment 6, 1000-0.16 nM, n=1
[4] = Experiment 3, 1000-0.2 nM, n=2 donors
[5] = Experiment 5, 1000-0.5 nM, n=1 donor

C[C@]12C=CC(=O)C=C1CC[C@@H]1[C@@H]2[C@@H](O)C[C@@]2(C)[C@H]1C[C@H]1O[C@@H](c3ccc(Cc4cnc(N)s4)cc3)O[C@]12C(=O)CO [INX-SM-1, (6aR,6bS,7S,8aS,8bS,10R,11aR,12aS,12bS)-10-(4-((2-aminothiazol-5-yl)methyl)phenyl)-7-hydroxy-8b-(2-hydroxyacetyl)-6a,8a-dimethyl-1,2,6a,6b,7,8,8a,8b,11a,12,12a,12b-dodecahydro-4H-naphtho[2′,1′:4,5]indeno[1,2-d][1,3]dioxol-4-one AcOH salt]
steroid potency as free payloads in LPS-activated human PBMCS (conclusions): varying degrees of dose dependent steroid potency | IL-1β and IL-6 production [1]: inhibit both IL-1β and IL-6 production | IL-1β production [2]: show inhibition in IL-1β production

C[C@]12C=CC(=O)C=C1CC[C@@H]1[C@@H]2[C@@H](O)C[C@@]2(C)[C@H]1C[C@H]1O[C@@H](c3ccc(Cc4csc(N)n4)cc3)O[C@]12C(=O)CO [INX-SM-2, (6aR,6bS,7S,8aS,8bS,10R,11aR,12aS,12bS)-10-(4-((2-aminothiazol-4-yl)methyl)phenyl)-7-hydroxy-8b-(2-hydroxyacetyl)-6a,8a-dimethyl-1,2,6a,6b,7,8,8a,8b,11a,12,12a,12b-dodecahydro-4H-naphtho[2′,1′:4,5]indeno[1,2-d][1,3]dioxol-4-one AcOH salt]
steroid potency as free payloads in LPS-activated human PBMCS (conclusions): varying degrees of dose dependent steroid potency | IL-1β production [3]: dose-dependent inhibition

C[C@]12C=CC(=O)C=C1CC[C@@H]1[C@@H]2[C@@H](O)C[C@@]2(C)[C@H]1C[C@H]1O[C@@H](C34CC(Cc5cccc(N)c5)(C3)C4)O[C@]12C(=O)CO [INX-SM-4, (6aR,6bS,7S,8aS,8bS,10R,11aR,12aS,12bS)-10-(3-(3-aminobenzyl)bicyclo[1.1.1]pentan-1-yl)-7-hydroxy-8b-(2-hydroxyacetyl)-6a,8a-dimethyl-1,2,6a,6b,7,8,8a,8b,11a,12,12a,12b-dodecahydro-4H-naphtho[2′,1′:4,5]indeno[1,2-d][1,3]dioxol-4-one]
steroid potency as free payloads in LPS-activated human PBMCS (conclusions): varying degrees of dose dependent steroid potency | IL-1β and IL-6 production [1]: inhibit both IL-1β and IL-6 production | IL-1β production [2]: show inhibition in IL-1β production

C[C@]12C=CC(=O)C=C1CC[C@@H]1[C@@H]2[C@@H](O)C[C@@]2(C)[C@H]1C[C@H]1O[C@@H](c3cnc(Cc4cccc(N)c4)s3)O[C@]12C(=O)CO [INX-SM-6, (6aR,6bS,7S, 8aS,8bS,10R,11aR,12aS,12bS)-10-(2-(3-aminobenzyl)thiazol-5-yl)-7-hydroxy-8b-(2-hydroxyacetyl)-6a,8a-dimethyl-1,2,6a,6b,7,8,8a,8b, 11a,12,12a,12b-dodecahydro-4H-naphtho[2′,1′:4,5]indeno[1,2-d][1,3]dioxol-4-one]
steroid potency as free payloads in LPS-activated human PBMCS (conclusions): varying degrees of dose dependent steroid potency | IL-1β production [2]: show inhibition in IL-1β production

C[C@]12C=CC(=O)C=C1CC[C@@H]1[C@@H]2[C@@H](O)C[C@@]2(C)[C@H]1C[C@H]1O[C@@H](c3ccc(Cc4ncc(N)s4)cc3)O[C@]12C(=O)CO [INX-SM-7, (6aR,6bS,7S,8aS,8bS,10R,11aR,12aS,12bS)-10-(4-((5-aminothiazol-2-yl)methyl)phenyl)-7-hydroxy-8b-(2-hydroxyacetyl)-6a,8a-dimethyl-1,2,6a,6b,7,8,8a,8b,11a,12,12a,12b-dodecahydro-4H-naphtho[2′,1′:4,5]indeno[1,2-d][1,3]dioxol-4-one]
steroid potency as free payloads in LPS-activated human PBMCS (conclusions): varying degrees of dose dependent steroid potency | IL-1β production [3]: dose-dependent inhibition

C[C@@]12CCC3=CC(=O)C=C[C@]3(C)[C@H]1[C@@H](O)C[C@@]1(C)[C@H]2C[C@H]2O[C@@H](c3ccc(CC45C6C7C4C4C5C6C74N)cc3)O[C@]21C(=O)CO (stereo partly drawn) [INX-SM-9, (6aR,6bS,7S,8aS,8bS,10R,11aR,12aS,12bS)-10-(4-((4-aminocuban-1-yl)methyl)phenyl)-7-hydroxy-8b-(2-hydroxyacetyl)-6a,8a-dimethyl-1,2,6a,6b,7,8,8a,8b,11a,12,12a,12b-dodecahydro-4H-naphtho[2′,1′:4,5]indeno[1,2-d][1,3]dioxol-4-one]
steroid potency as free payloads in LPS-activated human PBMCS (conclusions): varying degrees of dose dependent steroid potency | IL-1β production [4]: dose dependent inhibition

C[C@]12C=CC(=O)C=C1CC[C@@H]1[C@@H]2[C@@H](O)C[C@@]2(C)[C@H]1C[C@H]1O[C@@H](c3ccc(CC45CCC(N)(CC4)CC5)cc3)O[C@]12C(=O)CO [INX-SM-10, (6aR,6bS,7S, 8aS,8bS,11aR,12aS,12bS)-10-(4-((4-aminobicyclo [2.2.2]octan-1-yl)methyl)phenyl)-7-hydroxy-8b-(2-hydroxyacetyl)-6a,8a-dimethyl-1,2,6a,6b,7,8,8a,8b,11a,12,12a,12b-dodecahydro-4H-naphtho[2′,1′:4,5]indeno[1,2-d][1,3]dioxol-4-one]
steroid potency as free payloads in LPS-activated human PBMCS (conclusions): varying degrees of dose dependent steroid potency | IL-1β and IL-6 production [5]: dose dependent inhibition; also recorded: robust inhibition

C[C@]12C=CC(=O)C=C1CC[C@H]1[C@@H]3C[C@H]4O[C@@H](c5ccc(CC67CC(N)(C6)C7)cc5)O[C@@]4(C(=O)CO)[C@@]3(C)C[C@H](O)[C@@]12F [INX-SM-13, (6aS,6bR,7S,8aS,8bS,10R,11aR,12aS,12bS)-10-(4-((3-aminobicyclo[1.1.1]pentan-1-yl)methyl)phenyl)-6b-fluoro-7-hydroxy-8b-(2-hydroxyacetyl)-6a,8a-dimethyl-1,2,6a,6b,7,8,8a,8b,11a,12,12a,12b-dodecahydro-4H-naphtho[2′,1′:4,5]indeno[1,2-d][1,3]dioxol-4-one]
steroid potency as free payloads in LPS-activated human PBMCS (conclusions): varying degrees of dose dependent steroid potency | impact of halogenation of the steroid ring on potency (Experiment 6, 1000-0.16 nM): did not lead to increased potency

C[C@]12C=CC(=O)C=C1[C@@H](F)C[C@H]1[C@@H]3C[C@H]4O[C@@H](c5ccc(CC67CC(N)(C6)C7)cc5)O[C@@]4(C(=O)CO)[C@@]3(C)C[C@H](O)[C@@]12F [INX-SM-24, (2S,6aS,6bR,7S,8aS,8bS,10R,11aR,12aS,12bS)-10-(4-((3-aminobicyclo[1.1.1]pentan-1-yl)methyl)phenyl)-2,6b-difluoro-7-hydroxy-8b-(2-hydroxyacetyl)-6a,8a-dimethyl-1,2,6a,6b,7,8,8a,8b,11a,12,12a,12b-dodecahydro-4H-naphtho[2′,1′:4,5]indeno[1,2-d][1,3]dioxol-4-one]
steroid potency as free payloads in LPS-activated human PBMCS (conclusions): varying degrees of dose dependent steroid potency | impact of halogenation of the steroid ring on potency (Experiment 6, 1000-0.16 nM): increased potency over the non-fluorinated INX-SM-3

C[C@]12C=CC(=O)C=C1CC[C@@H]1[C@@H]2[C@@H](O)C[C@@]2(C)[C@H]1C[C@H]1O[C@@H](c3ccc(CC4COC5(CNC5)C4)cc3)O[C@]12C(=O)CO (stereo partly drawn) [INX-SM-31, (6aR,6bS,7S,8aS,8bS,11aR,12aS,12bS)-10-(4-((5-oxa-2-azaspiro[3.4]octan-7-yl)methyl)phenyl)-7-hydroxy-8b-(2-hydroxyacetyl)-6a,8a-dimethyl-1,2,6a,6b,7,8,8a,8b,11a,12,12a,12b-dodecahydro-4H-naphtho[2′,1′:4,5]indeno[1,2-d][1,3]dioxol-4-one]
steroid potency as free payloads in LPS-activated human PBMCS (conclusions): varying degrees of dose dependent steroid potency; also recorded: lowest potency among the R stereoisomers | potency relative to the other compounds of the experiment: least potent compound among these compounds tested | IL-1β production [4]: dose dependent inhibition

C[C@@]12CCC3=CC(=O)C=C[C@]3(C)[C@H]1[C@@H](O)C[C@@]1(C)[C@H]2C[C@H]2O[C@@H](c3ccc(CC4CC5(CC(N)C5)C4)cc3)O[C@]21C(=O)CO (stereo partly drawn) [INX-SM-32, (6aR,6bS,7S,8aS,8bS,11aR,12aS,12bS)-10-(4-((6-aminospiro[3.3]heptan-2-yl)methyl)phenyl)-7-hydroxy-8b-(2-hydroxyacetyl)-6a,8a-dimethyl-1,2,6a,6b,7,8,8a,8b,11a,12,12a,12b-dodecahydro-4H-naphtho[2′,1′:4,5]indeno[1,2-d][1,3]dioxol-4-one]
steroid potency as free payloads in LPS-activated human PBMCS (conclusions): varying degrees of dose dependent steroid potency | IL-1β and IL-6 production (Experiment 4, 500-1 nM, n=2): dose dependent inhibition in IL-1β and IL-6 production

C[C@]12C=CC(=O)C=C1CC[C@@H]1[C@@H]2[C@@H](O)C[C@@]2(C)[C@H]1C[C@H]1O[C@@H](c3ccc(CC4(N)COC4)cc3)O[C@]12C(=O)CO [INX-SM-33, (6aR,6bS,7S,8aS,8bS,10R,11aR,12aS,12bS)-10-(4-((3-aminooxetan-3-yl)methyl)phenyl)-7-hydroxy-8b-(2-hydroxyacetyl)-6a,8a-dimethyl-1,2,6a,6b,7,8,8a,8b,11a,12,12a,12b-dodeca hydro-4H-naphtho[2′,1′:4,5]indeno[1,2-d][1,3]dioxol-4-one]
steroid potency as free payloads in LPS-activated human PBMCS (conclusions): varying degrees of dose dependent steroid potency; also recorded: lowest potency among the R stereoisomers | potency relative to the other compounds of the experiment: least potent compound among these compounds tested | IL-1β and IL-6 production [5]: dose dependent inhibition; also recorded: modest inhibition

C[C@]12C=CC(=O)C=C1CC[C@@H]1[C@@H]2[C@@H](O)C[C@@]2(C)[C@H]1C[C@H]1OC(c3ccc(CC4(N)CC(F)(F)C4)cc3)O[C@]12C(=O)CO (stereo partly drawn) [INX-SM-35, (6aR,6bS,7S,8aS,8bS,10R,11aR,12aS,12bS)-10-(4-((1-amino-3,3-difluorocyclobutyl)methyl)phenyl)-7-hydroxy-8b-(2-hydroxyacetyl)-6a,8a-dimethyl 1,2,6a,6b,7,8,8a,8b,11a,12,12a,12b-dodecahydro-4H-naphtho[2′,1′:4,5]indeno[1,2-d][1,3]dioxol-4-one]
steroid potency as free payloads in LPS-activated human PBMCS (conclusions): varying degrees of dose dependent steroid potency | IL-1β production [4]: dose dependent inhibition
